Drawing on ChEMBL document CHEMBL1158742, “Production of 8-demethylgeldanamycin and 4,5-epoxy-8-demethylgeldanamycin from a recombinant strain of Streptomyces hygroscopicus” (J Nat Prod, 2005), this text covers IC50 for three compounds.

This assay deals with SK-BR-3. The experiment in a line: Cytotoxicity against human SKBR3 cells after 72 hrs by celltiter-Glo assay. The class given is functional, cell-based. To be noted: SK-BR-3, 72 h.
On to `COC1=C2C[C@@H](C)C[C@H](OC)[C@H](O)[C@@H](C)/C=C/[C@H](OC(N)=O)[C@@H](OC)[C@@H]3O[C@@H]3/C=C(\C)C(=O)NC(=CC1=O)C2=O`, for which the 50% inhibitory concentration (IC50) (as a rule, the midpoint of a concentration-inhibition curve) turned out to be 280 nM.
In the case of `COC1=C2C[C@@H](C)C[C@H](OC)[C@H](O)[C@@H](C)/C=C/[C@H](OC(N)=O)[C@@H](OC)/C=C\C=C(/C)C(=O)NC(=CC1=O)C2=O` it was 481 nM; in that of `C=CCNC1=C2C[C@@H](C)C[C@H](OC)[C@H](O)[C@@H](C)/C=C(\C)[C@H](OC(N)=O)[C@@H](OC)/C=C\C=C(/C)C(=O)NC(=CC1=O)C2=O` [TANESPIMYCIN], 27 nM.
